Test results reported in patent US5763599A, “Nucleoside derivatives with photolabile protective groups” (Pfleiderer; Wolfgang, priority 1994, dated 1998).

Test: Irradiation experiments: photolytic cleavage of the 5' protective group with polychromatic light, followed by HPLC
Format: physicochemical
Details: for Concentration Thymidine (released): from 0.2 mM CNPEOC-T; for Relative Quantity Thymidine (released): of 0.2 mM; for Concentration CNPEOC-T: start 0.2 mM; for Relative Quantity CNPEOC-T: 200 µM; for Photolytic cleavage of the 5' protective group in relation to rapidity and high yields: compared with V1 and V2
Experimental: The corresponding protected thymidine nucleosides were irradiated by means of an irradiation apparatus which was composed of a Hg very high pressure lamp (OSRAM HBO, 200 W), a focusing lens, a shutter with an electronic control device for setting the shutter times and a temperature-controlled cuvette holder. A heat filter (0.032 molar CuSO4 solution) between the lamp and sample was also installed. 0.2 mM solutions of the nucleosides in MeOH/H2 O 1:1 were irradiated at 20° to 30° C. with the entire lamp spectrum (polychromatic light with wavelengths of λ>289 nm).
The cleavage of the protective groups was followed quantitatively by HPLC. The HPLC unit comprised of the following devices: Merck-Hitachi L-6200 Intelligent Pump, Merck-Hitachi Intelligent Auto Sampler AS 4000, Merck-Hitachi Interface, Merck Lichrosorb column RP 18, 125×5 mm. The ultra-violet/VIS spectrophotometer was a Kontron UVIKON 730 LC. Detection took place at 260 nm. The integration of the chromatogram signals took place by means of Merck software: D-6000 HPLC Manager.
MeOH/H2 O mixtures were always used for chromatography. The following gradient was used (flow: 1 ml/min)
Calibration curves for thymidine and the protected nucleosides were compiled by injecting dilution series into the chromatograph.
Samples (loop volume: 20 μl) were taken from the irradiated solutions after specific time intervals. Each sample was injected twice into the chromatograph. The mean values of these dual determinations were used for further evaluation. The peak areas of the chromatograms were converted into the concentrations of protected nucleosides or of thymidine by means of the above-compiled calibration curves. The concentration values obtained in this manner were divided by the maximum achievable concentration of 0.2 mM (=concentration of the protected nucleosides at the start of irradiation) and plotted against the irradiation time as a "relative quantity" in percent.
Linear regression yielded: y=4.96777·10^-4 +3.85757 10^-7 ·x with x=peak area and y=thymidine concentration; r=0.9999
Linear regression yielded: y=9.2999·10^-4 +3.22516 10^-7 ·x with x=peak area and y=CNPEOC-T concentration; r=0.9998.
With regard to several other derivatives according to the invention and to the two comparative compounds V1 (5'-O-(2-nitrobenzyloxycarbonyl)thymidine) and V2 (5'-O-(2.4dinitrobenzyloxycarbonyl)thymidine), the following table summarizes their results obtained according to the above method and evaluated in relation to half-life and yield percentage of deprotected nucleoside derivative, in relation to the maximum concentration achievable): […]

[1] = 0.2 mM in MeOH/H2O 1:1, 20° to 30° C., λ>289 nm

Cc1cn([C@H]2C[C@H](O)[C@@H](COC(=O)OCCc3c(Cl)cccc3[N+](=O)[O-])O2)c(=O)[nH]c1=O [Compound 4, 5'-O-(2-(2-chloro-6-nitrophenyl)ethoxycarbonyl)thymidine]
Yield of deprotected nucleoside, in relation to maximum concentration achievable [1]: 86 % Cmax
Concentration Thymidine (released) (irradiation time 1 min): 32.7 µM
Relative Quantity Thymidine (released) (irradiation time 1 min): 16.3%
Concentration CNPEOC-T (irradiation time 1 min): 148.9 µM
Concentration Thymidine (released) (irradiation time 2 min): 85.8 µM
Relative Quantity Thymidine (released) (irradiation time 2 min): 42.9%
Concentration CNPEOC-T (irradiation time 2 min): 82.6 µM
Concentration Thymidine (released) (irradiation time 3 min): 88.8 µM
Relative Quantity Thymidine (released) (irradiation time 3 min): 44.4%
Concentration CNPEOC-T (irradiation time 3 min): 81.9 µM
Concentration Thymidine (released) (irradiation time 5 min): 127.8 µM
Relative Quantity Thymidine (released) (irradiation time 5 min): 63.9%
Concentration CNPEOC-T (irradiation time 5 min): 28.1 µM
Concentration Thymidine (released) (irradiation time 15 min): 167.3 µM
Relative Quantity Thymidine (released) (irradiation time 15 min): 83.7%
Concentration CNPEOC-T (irradiation time 15 min): 8.8 µM
Concentration Thymidine (released) (irradiation time 30 min): 169.3 µM
Relative Quantity Thymidine (released) (irradiation time 30 min): 84.6%
Concentration CNPEOC-T (irradiation time 30 min): 0 µM
Concentration Thymidine (released) (irradiation time 60 min): 171.1 µM
Relative Quantity Thymidine (released) (irradiation time 60 min): 85.5%
Concentration CNPEOC-T (irradiation time 60 min): 0 µM
Concentration Thymidine (released) (irradiation time 120 min): 157.7 µM
Relative Quantity Thymidine (released) (irradiation time 120 min): 78.9%
Concentration CNPEOC-T (irradiation time 120 min): 0 µM
t0.5 (half-life of photolytic deprotection) (meoh/h2o 1:1, 200 µM): 1.71 min
Relative Quantity CNPEOC-T (meoh/h2o 1:1, 1 min): 74.5%
Relative Quantity CNPEOC-T (meoh/h2o 1:1, 2 min): 41.3%
Relative Quantity CNPEOC-T (meoh/h2o 1:1, 0.05 h): 40.9%
Relative Quantity CNPEOC-T (meoh/h2o 1:1, 5 min): 14.0%
Relative Quantity CNPEOC-T (meoh/h2o 1:1, 0.25 h): 4.4%
Relative Quantity CNPEOC-T (meoh/h2o 1:1, 0.5 h): 0%
Relative Quantity CNPEOC-T (meoh/h2o 1:1, 1 h): 0%
Relative Quantity CNPEOC-T (meoh/h2o 1:1, 2 h): 0%

Cc1cn([C@H]2C[C@H](O)[C@@H](COC(=O)OCCc3c(Cl)cc(Cl)cc3[N+](=O)[O-])O2)c(=O)[nH]c1=O [Compound 8, 5'-O-(2-(2,4-dichloro-6-nitrophenyl)ethoxycarbonyl)thymidine]
Yield of deprotected nucleoside, in relation to maximum concentration achievable [1]: 77 % Cmax
t0.5 (half-life of photolytic deprotection) (meoh/h2o 1:1, 200 µM): 1.68 min

Cc1cn([C@H]2C[C@H](O)[C@@H](COC(=O)OCCc3ccccc3[N+](=O)[O-])O2)c(=O)[nH]c1=O [Compound 1, 5'-O-(2-(2-nitrophenyl)ethoxycarbonyl)thymidine]
Yield of deprotected nucleoside, in relation to maximum concentration achievable [1]: 79 % Cmax
t0.5 (half-life of photolytic deprotection) (meoh/h2o 1:1, 200 µM): 2.6 min

Cc1cn([C@H]2C[C@H](O)[C@@H](COC(=O)OCCc3c(Br)cccc3[N+](=O)[O-])O2)c(=O)[nH]c1=O [Compound 5, 5'-O-(2-(2-bromo-6-nitrophenyl)ethoxycarbonyl)thymidine]
Yield of deprotected nucleoside, in relation to maximum concentration achievable [1]: 89 % Cmax
t0.5 (half-life of photolytic deprotection) (meoh/h2o 1:1, 200 µM): 1.71 min

Cc1cn([C@H]2C[C@H](O)[C@@H](COC(=O)OCCc3c([N+](=O)[O-])cccc3[N+](=O)[O-])O2)c(=O)[nH]c1=O [Compound 2, 5'-O-(2-(2,6-dinitrophenyl)ethoxycarbonyl)thymidine]
Yield of deprotected nucleoside, in relation to maximum concentration achievable [1]: 92 % Cmax
t0.5 (half-life of photolytic deprotection) [1]: 1.37 min

Cc1cn([C@H]2C[C@H](O)[C@@H](COC(=O)OCc3ccccc3[N+](=O)[O-])O2)c(=O)[nH]c1=O [Compound V1, 5'-O-(2-nitrobenzyloxycarbonyl)thymidine, reference compound]
Yield of deprotected nucleoside, in relation to maximum concentration achievable [1]: 55 % Cmax
t0.5 (half-life of photolytic deprotection) (meoh/h2o 1:1, 200 µM): 2.5 min

Cc1cn([C@H]2C[C@H](O)[C@@H](COC(=O)OCC(C)c3ccccc3[N+](=O)[O-])O2)c(=O)[nH]c1=O (some centres unmarked) [Compound 10, 5'-O-(2-(2-nitrophenyl)propoxycarbonyl)thymidine]
Yield of deprotected nucleoside, in relation to maximum concentration achievable [1]: 89 % Cmax
Photolytic cleavage of the 5' protective group in relation to rapidity and high yields: clearly superior
t0.5 (half-life of photolytic deprotection) (meoh/h2o 1:1, 200 µM): 0.7 min

Cc1cn([C@H]2C[C@H](O)[C@@H](COC(=O)OCc3ccc([N+](=O)[O-])cc3[N+](=O)[O-])O2)c(=O)[nH]c1=O [Compound V2, 5'-O-(2.4dinitrobenzyloxycarbonyl)thymidine, reference compound]
Yield of deprotected nucleoside, in relation to maximum concentration achievable [1]: 38 % Cmax
t0.5 (half-life of photolytic deprotection) [1]: 3.3 min

Cc1cn([C@H]2C[C@H](O)[C@@H](COC(=O)OCC(Cl)c3ccccc3[N+](=O)[O-])O2)c(=O)[nH]c1=O (some centres unmarked) [Compound 11, 5'-O-(2-chloro-2-(2-nitrophenyl)ethoxycarbonyl)thymidine]
Yield of deprotected nucleoside, in relation to maximum concentration achievable [1]: 97 % Cmax
Photolytic cleavage of the 5' protective group in relation to rapidity and high yields: clearly superior
t0.5 (half-life of photolytic deprotection) (meoh/h2o 1:1, 200 µM): 1.46 min

COc1cc(CCOC(=O)OC[C@H]2O[C@@H](n3cc(C)c(=O)[nH]c3=O)C[C@@H]2O)c([N+](=O)[O-])cc1OC [Compound 9, 5'-O-(2-(4,5-dimethoxy-2-nitrophenyl)ethoxycarbonyl)thymidine]
Yield of deprotected nucleoside, in relation to maximum concentration achievable [1]: 77 % Cmax
t0.5 (half-life of photolytic deprotection) (meoh/h2o 1:1, 200 µM): 7.2 min

Cc1cn([C@H]2C[C@H](O)[C@@H](COC(=O)OCCc3ccc(Cl)cc3[N+](=O)[O-])O2)c(=O)[nH]c1=O [Compound 6, 5'-O-(2-(4-chloro-2-nitrophenyl)ethoxycarbonyl)thymidine]
Yield of deprotected nucleoside, in relation to maximum concentration achievable [1]: 70 % Cmax
t0.5 (half-life of photolytic deprotection) (meoh/h2o 1:1, 200 µM): 2.3 min
